In test [1] the test system is methicillin resistant S. aureus Mu50 strain (S. aureus ATCC700699) biofilm. In words: Biofilm susceptibility to vancomycin, combination treatment regimen (mature biofilm treated with compound plus vancomycin). In kind it is cell-based. Conditions: for Combin. (100 μM): percentage Colony Forming Units (CFU's) per biofilm: compound 100 μM together with VAN 20 μg/ml on mature biofilm; for Combin. (100 μM): percentage Colony Forming Units (CFU's) per biofilm / Combin. (25 μM): percentage Colony Forming Units (CFU's) per biofilm: compared to the untreated (negative) control; for EC50: concentration needed to get 50% killing compared to antibiotic alone (VAN 20 μg/ml) and complete killing, read-out: Combin. (EC50); for Combin. (25 μM): percentage Colony Forming Units (CFU's) per biofilm: compound 25 μM together with VAN 20 μg/ml on mature biofilm. Here is the method:
(§1) The compounds were evaluated for their effect on biofilm susceptibility both under pre-treatment and combination treatment regimens. In the pre-treatment regimen, a methicillin resistant S. aureus Mu50 strain (S. aureus ATCC700699) was allowed to form biofilms in the presence of the compounds after which the biofilm was treated with vancomycin (20 μg/ml). In the combination treatment regimen, S. aureus Mu50 was allowed to form a mature biofilm after which it was treated with a combination of a compound and vancomycin. In brief, 100 μl of a standardized inoculum (10^8 CFU/ml) was placed in the wells of a round-bottom 96-well microtiter plate. The cells were allowed to adhere to the plate in the absence (combined treatment) or presence (pre-treatment) of the compounds (0.1-250 μM) for 4 h at 37° C. After this adhesion step, non-adhered cells were removed, the wells were rinsed and fresh medium with or without the compounds was added. The plates were incubated for an additional 20 h at 37° C. After this, the medium was removed, biofilms were rinsed with physiological saline and vancomycin (20 μg/ml) was added alone (pre-treatment) or with the compounds (combined treatment, 0.1-250 μM). Plates were placed at 37° C. for 24 h after which medium was removed, wells were rinsed and the surviving cells in each condition were collected. The number of surviving cells under each condition was compared to vancomycin treatment alone and was assessed by conventional plating. The REF compound (hamamelitannin) was also observed for its effect on biofilm susceptibility towards other antibiotics (incl. vancomycin, cefoxitin, tobramycin, cefazolin, cefalonium, daptomycin, linezolide and cephalexin). Biofilms were formed as described above and were treated with the antibiotics alone or in combination with the REF compound (250 μM). The number of surviving cells under each condition was compared to the untreated control biofilm and was assessed by conventional plating.

For test [2] the test system is unchanged. The experiment in a line: Biofilm susceptibility to vancomycin, pre-treatment regimen (biofilm formed in presence of compound, then vancomycin). The class given is cell-based. Particulars: for Pretreat (100 μM): percentage Colony Forming Units (CFU's) per biofilm: compound 100 μM during biofilm formation; for Pretreat (100 μM): percentage Colony Forming Units (CFU's) per biofilm / Pretreat. (25 μM): percentage Colony Forming Units (CFU's) per biofilm: then VAN 20 μg/ml, compared to the untreated (negative) control; for EC50: concentration needed to get 50% killing compared to antibiotic alone (VAN 20 μg/ml) and complete killing, read-out: Pretreat. (EC50); for Pretreat. (25 μM): percentage Colony Forming Units (CFU's) per biofilm: compound 25 μM during biofilm formation. How it is done: as §1

The term EC50 denotes the concentration at which the effect is half-maximal. As for `O=C(NC[C@H]1OC(O)[C@@](O)(CNC(=O)c2cc(O)cc(O)c2)[C@@H]1O)c1cc(O)cc(O)c1` (stereo partly drawn) [compound 18, N,N′-(((2R,3R,4R)-3,4,5-trihydroxytetrahydrofuran-2,4-diyl)bis(methylene))bis(3,5-dihydroxybenzamide)], in test [1], the “Combin. (100 μM): percentage Colony Forming Units (CFU's) per biofilm” value was found to be 79.55 percentage and the EC50 worked out at 231 µM. In test [2], the “Pretreat (100 μM): percentage Colony Forming Units (CFU's) per biofilm” value stood at 37.58 percentage and the EC50 was found to be 116 µM.
In the same order, the values of `O=C(NC[C@]1(O)CO[C@H](CNC(=O)c2cnc(Cl)cc2Cl)[C@H]1O)c1ccccc1` [compound 198, N-(((2R,3R,4S)-4-(benzamidomethyl)-3,4-dihydroxytetrahydrofuran-2-yl)methyl)-4,6-dichloronicotinamide] are 11.25 percentage, 7.52 µM, 19.18 percentage and 10.8 µM.
For the molecule `CN(C[C@H]1OC[C@@](O)(CNC(=O)c2ccccc2)[C@@H]1O)C(=O)c1ccccc1` [compound 261, N-(((2R,3R,4S)-4-(benzamidomethyl)-3,4-dihydroxytetrahydrofuran-2-yl)methyl)-N-methylbenzamide], in test [1], the “Combin. (100 μM): percentage Colony Forming Units (CFU's) per biofilm” value was 10.02 percentage and the EC50 turned out to be 24.3 µM. Besides, in test [2], the “Pretreat (100 μM): percentage Colony Forming Units (CFU's) per biofilm” value was 6.09 percentage and the EC50 was 8.5 µM.
Consider `COc1ccc(C(=O)NC[C@H]2OC[C@@](O)(CNC(=O)c3ccccc3)[C@@H]2O)cc1` [compound 154, N-(((2R,3R,4S)-4-(benzamidomethyl)-3,4-dihydroxytetrahydrofuran-2-yl)methyl)-4-methoxybenzamide], for which, in test [1], the “Combin. (100 μM): percentage Colony Forming Units (CFU's) per biofilm” value came to 22.56 percentage. In test [2], the “Pretreat (100 μM): percentage Colony Forming Units (CFU's) per biofilm” value was 19.34 percentage.
Consider `O=C(NC[C@]1(O)CO[C@H](CN2C(=O)c3ccccc3C2=O)[C@H]1O)c1ccnnc1` [compound 258, N-(((3S,4R,5R)-5-((1,3-dioxoisoindolin-2-yl)methyl)-3,4-dihydroxytetrahydrofuran-3-yl)methyl)pyridazine-4-carboxamide], for which, in test [1], the “Combin. (100 μM): percentage Colony Forming Units (CFU's) per biofilm” value is listed as 23.56 percentage and the EC50 was determined as 11.4 µM. In test [2], the “Pretreat (100 μM): percentage Colony Forming Units (CFU's) per biofilm” value is 0.73 percentage and the EC50 is 5.85 µM.
Regarding `O=C(NC[C@]1(O)CO[C@H](CNC(=O)c2ccccc2Cl)[C@H]1O)c1ccco1` [compound 246, N-(((3S,4R,5R)-5-((2-chlorobenzamido)methyl)-3,4-dihydroxytetrahydrofuran-3-yl)methyl)furan-2-carboxamide], in test [1], the “Combin. (25 μM): percentage Colony Forming Units (CFU's) per biofilm” value was 62.82 percentage. In test [2], the “Pretreat. (25 μM): percentage Colony Forming Units (CFU's) per biofilm” value is on record as 87.98 percentage.
Consider `N#Cc1ccc(C(=O)NC[C@H]2OC[C@@](O)(CNC(=O)c3ccccc3)[C@@H]2O)cc1` [compound 155, N-(((2R,3R,4S)-4-(benzamidomethyl)-3,4-dihydroxytetrahydrofuran-2-yl)methyl)-4-cyanobenzamide], for which, in test [1], the “Combin. (100 μM): percentage Colony Forming Units (CFU's) per biofilm” value was 16.06 percentage. In test [2], the “Pretreat (100 μM): percentage Colony Forming Units (CFU's) per biofilm” value is recorded as 15.57 percentage.
In the case of `O=C(NC[C@]1(O)CO[C@H](CN2C(=O)c3ccccc3C2=O)[C@H]1O)c1ccccc1` [compound 173, N-(((3S,4R,5R)-5-((1,3-dioxoisoindolin-2-yl)methyl)-3,4-dihydroxytetrahydrofuran-3-yl)methyl)benzamide], in test [1], the “Combin. (100 μM): percentage Colony Forming Units (CFU's) per biofilm” value is 8.805 percentage and the concentration for a half-maximal effect (EC50) was 8.3 µM. Also, in test [2], the “Pretreat (100 μM): percentage Colony Forming Units (CFU's) per biofilm” value came to 11.18 percentage and the EC50 was 5.01 µM.
For the molecule `O=C(NC[C@]1(O)CO[C@H](CNC(=O)c2ccccc2Cl)[C@H]1O)c1cccnc1` [compound 243, N-(((3S,4R,5R)-5-((2-chlorobenzamido)methyl)-3,4-dihydroxytetrahydrofuran-3-yl)methyl)nicotinamide], the “Combin. (25 μM): percentage Colony Forming Units (CFU's) per biofilm” value in test [1] is on record as 51.83 percentage. For the same molecule, the “Pretreat. (25 μM): percentage Colony Forming Units (CFU's) per biofilm” value in test [2] is listed as 85.00 percentage.
Regarding `O=C(Cc1ccccc1)NC[C@]1(O)CO[C@H](CNC(=O)c2ccccc2Cl)[C@H]1O` [compound 259, 2-chloro-N-(((2R,3R,4S)-3,4-dihydroxy-4-((2-phenylacetamido)methyl)tetrahydrofuran-2-yl)methyl)benzamide], the “Combin. (100 μM): percentage Colony Forming Units (CFU's) per biofilm” value in test [1] was determined as 71.25 percentage. Also, in test [2], the “Pretreat (100 μM): percentage Colony Forming Units (CFU's) per biofilm” value is 55.12 percentage.
On to `O=C(NC[C@]1(O)CO[C@H](CNC(=O)c2ccccc2Cl)[C@H]1O)c1ccoc1` [compound 247, N-(((3S,4R,5R)-5-((2-chlorobenzamido)methyl)-3,4-dihydroxytetrahydrofuran-3-yl)methyl)furan-3-carboxamide], for which, in test [1], the “Combin. (25 μM): percentage Colony Forming Units (CFU's) per biofilm” value is 49.94 percentage and the EC50 stood at 76.7 µM. Also, in test [2], the “Pretreat. (25 μM): percentage Colony Forming Units (CFU's) per biofilm” value is listed as 42.14 percentage and the EC50 was found to be 68.5 µM.
Turning to `O=C(NC[C@H]1OC[C@@](O)(CNC(=O)c2ccccc2Cl)[C@@H]1O)c1ccccc1Cl` [compound 249, N,N′-(((2R,3R,4S)-3,4-dihydroxytetrahydrofuran-2,4-diyl)bis(methylene))bis(2-chlorobenzamide)], in test [1], the “Combin. (100 μM): percentage Colony Forming Units (CFU's) per biofilm” value was 13.59 percentage and the EC50 is 28.4 µM. In test [2], the “Pretreat (100 μM): percentage Colony Forming Units (CFU's) per biofilm” value came out at 6.67 percentage and the EC50 came out at 5.36 µM.
Regarding `O=C(CCc1ccccc1)NC[C@]1(O)CO[C@H](CNC(=O)c2ccccc2Cl)[C@H]1O` [compound 260, 2-chloro-N-(((2R,3R,4S)-3,4-dihydroxy-4-((3-phenylpropanamido)methyl)tetrahydrofuran-2-yl)methyl)benzamide], in test [1], the “Combin. (100 μM): percentage Colony Forming Units (CFU's) per biofilm” value was 71.12 percentage. For the same molecule, the “Pretreat (100 μM): percentage Colony Forming Units (CFU's) per biofilm” value in test [2] is on record as 57.01 percentage.
For `CC(C)S(=O)(=O)NC[C@H]1OC[C@@](O)(CNC(=O)c2ccccc2)[C@@H]1O` [compound 213, N-(((3S,4R,5R)-3,4-dihydroxy-5-(((1-methylethyl)sulfonamido)methyl)tetrahydrofuran-3-yl)methyl)benzamide], in that order: 32.67 percentage and 28.32 percentage.
As for `CN(C)c1ccccc1C(=O)NC[C@H]1OC[C@@](O)(CNC(=O)c2ccccc2)[C@@H]1O` [compound 174, N-(((2R,3R,4S)-4-(benzamidomethyl)-3,4-dihydroxytetrahydrofuran-2-yl)methyl)-2-(dimethylamino)benzamide], in test [1], the “Combin. (100 μM): percentage Colony Forming Units (CFU's) per biofilm” value was determined as 11.11 percentage. Further, in test [2], the “Pretreat (100 μM): percentage Colony Forming Units (CFU's) per biofilm” value is on record as 28.01 percentage.
With `CN(C[C@]1(O)CO[C@H](CNC(=O)c2ccccc2)[C@H]1O)C(=O)c1ccccc1` [compound 229, N-(((3S,4R,5R)-5-(benzamidomethyl)-3,4-dihydroxytetrahydrofuran-3-yl)methyl)-N-methylbenzamide], in test [1], the “Combin. (100 μM): percentage Colony Forming Units (CFU's) per biofilm” value is recorded as 11.15 percentage and the EC50 is 8.92 µM. In test [2], the “Pretreat (100 μM): percentage Colony Forming Units (CFU's) per biofilm” value is 7.17 percentage and the EC50 is 5.82 µM.
Take `O=C(NC[C@]1(O)CO[C@H](CNC(=O)C2CCCCC2)[C@H]1O)c1ccccc1` [compound 191, N-(((3S,4R,5R)-5-(cyclohexanecarboxamidomethyl)-3,4-dihydroxytetrahydrofuran-3-yl)methyl)benzamide]: the “Combin. (100 μM): percentage Colony Forming Units (CFU's) per biofilm” value in test [1] amounted to 19.28 percentage. Moreover, the “Pretreat (100 μM): percentage Colony Forming Units (CFU's) per biofilm” value in test [2] stood at 32.28 percentage.
As to `O=C(NC[C@H]1OC(O)[C@@](O)(CNC(=O)c2cccc(O)c2)[C@@H]1O)c1cccc(O)c1` (stereo partly drawn) [compound 19, N,N′-(((2R,3R,4R)-3,4,5-trihydroxytetrahydrofuran-2,4-diyl)bis(methylene))bis(3-hydroxybenzamide)], in test [1], the “Combin. (100 μM): percentage Colony Forming Units (CFU's) per biofilm” value was found to be 27.23 percentage and the EC50 was 52.3 µM. In addition, in test [2], the “Pretreat (100 μM): percentage Colony Forming Units (CFU's) per biofilm” value is recorded as 19.78 percentage and the EC50 was 38.5 µM.
